Results reported in US5169833A, “Substituted cyclic pentapeptides” (G. D. Searle & Co., priority 1991, dated 1992).
Counter-ions that a name gives are not always drawn.

Columns and labels:
δ opioid receptors = δ opioid receptors (Rattus norvegicus, UniProt P33533); experiment: Opiate Binding Assay, δ (3[H]-DSLET displacement)
μ opioid receptors = μ opioid receptors (Rattus norvegicus, UniProt P33535); experiment: Opiate Binding Assay, μ (3[H]-DAMPGO displacement)
[1] = test system: Charles River Sprague-Dawley rats; experiment: Tail Flick Assay (rat); format: in vivo; settings: s.c., at 30 mpk
Source text: (§1) The "Tail Flick Assay" and the "Hot Plate Assay" (also known as the "Hind Paw Lick Assay") use thermal pain of transient duration, and are tests in which the pain threshold of the mice or rats being analyzed has not been altered. They are useful for evaluating the ability of a compound or drug to increase the animal's pain threshold (i.e. prolong response latencies), rather than to restore normal thresholds.
The heat-induced response to the Tail Flick Assay is a reflex reaction mediated at the level of the spinal cord. The heat-induced response to the Hot Plate Assay, however, is a more complex behavior requiring integration at higher centers in the brain. […]
Tail flick response latencies (defined as the time that elapsed between the onset of a high intensity beam of light and the reflex removal of the mouse or rat's tail) and hot plate response latencies (defined as the time that elapsed between the placement of a mouse or rat on a 55 degrees Celsius surface and a lick of the hind paw) were separately, but consecutively, measured before (baseline) and again at fixed intervals after subcutaneous or intracerebroventricular administration of one of the pentapeptide compounds of the invention, the Mosberg Pentapeptide, or after the administration of saline (controls). […]

CD Charles River mice = experiment: Writhing Assay (PBQ-induced writhing); format: in vivo; settings: mouse; for Writhing Assay, number of mice out of ten in which peptide was active, Intragastric: i.g., 15 min before PBQ; for Writhing Assay, number of mice out of ten in which peptide was active, Intragastric / Writhing Assay, number of mice out of ten in which peptide was active, Subcutaneous: 10 mpk screening dose; for Writhing Assay ED50 value, Subcutaneous / Writhing Assay, number of mice out of ten in which peptide was active, Subcutaneous: s.c.; for Writhing Assay ED50 value, Subcutaneous: 25 min before PBQ i.p.
Source text: The "Writhing Assay" is one of the most widely-used experimental procedures for measuring the analgesic activity of different narcotic and nonnarcotic analgesic agents, and involves the continuous, chemically-induced pain of visceral origin to an animal, such as a mouse or rat. [Gyires et al., Arch. int. Pharmacodyn, 267, 131-140 (1984); C. Vander Wende et al., Fed. Proc., 15, 494 (1956); Koster et al., Fed. Proc., 18, 412 (1959); and Witken et al., J. Pharmacol. Exp. Ther., 133, 400-408 (1961).] Chemicals Which may be used to induce this pain include phenylbenzoquinone (PBQ) and acetic acid. As a result of the chemical irritation to the animal, a characteristic stretching and writhing of the animal (dorsiflexion of the animal's back, extension of its hindlimbs and the strong contraction of its abdominal musculature) will generally occur. […] Drugs which reduce the number of writhes of the animal appear to restore the normal nociceptive threshold of the animal.
This assay was conducted generally in the manner described by R. I. Taber, "Predictive Value of Analgesic Assays in Mice and Rats," Advances in Biochemical Psychopharmacology, 8, 191 (1974).
Two hundred CD Charles River mice, weighing 20 to 30 grams were used in this assay.
Twenty-five minutes after subcutaneous administration, and fifteen minutes after intragastric administration, to the mice of 10 mg per kilogram (mpk) of body weight of either a Test Pentapeptide or the Mosberg Pentapeptide, 0.1 ml per 10 g of body weight of a 0.025% w/v solution of PBQ was injected intraperitoneally into each mouse. Some mice were given saline in place of a Test Pentapeptide, or the Mosberg Pentapeptide, and were used as a control group.
Five minutes later, each mouse was individually placed into a glass beaker for observation, and the number of writhes occurring during the following ten-minute period was counted.
A pentapeptide compound was considered to be "active" (to have produced analgesia in a mouse) if, after the administration of 10 mg per kilogram (mpk) of body weight of the compound to the mouse, the number of writhes elicited by a mouse injected with PBQ was equal to, or less than, one-half the median number of writhes recorded for the saline-treated control group of mice that day, as described by R. I. Taber, supra.
The standard initial screening dose of a test compound employed in this assay was 10 mpk […] for both routes of administration. […] A maximum likelihood function was used to determine the ED50 value. (The slopes of the dose-response curves for all test compounds analyzed were compared as described by Tallarida and Murray, Manual of Pharmacologic Calculations, Page 11 (Springer Verlag, New York, 1981)).

[2] = test system: Charles River albino mice; experiment: Tail Flick Assay (mouse); format: in vivo; settings: for Tail Flick Assay activity, Subcutaneous: s.c.
Source text: as §1
(§2) The heat-induced response to the Tail Flick Assay is a reflex reaction mediated at the level of the spinal cord. The heat-induced response to the Hot Plate Assay, however, is a more complex behavior requiring integration at higher centers in the brain.
The Tail Flick Assay and the Hot Plate Assay were performed generally in the manner described by G. Woolfe et al., "The Evaluation of the Analgesic Action of Pethidine Hydrochloride (Demerol)," J. Pharmacol. Exp. Ther., 80, 300, (1944), F. D'Amour et al., "A Method for Determining Loss of Pain Sensation," J. PharmacoI. Exp. Ther., 72, 74, 300-307 (1941), and E. Drower et al., "The Antinociceptive Effects of Prostaglandin Antagonists in the Rat," European Journal of Pharmacology, 133, 249-256 (1987).
Male Charles River albino mice and male Charles River Sprague-Dawley rats weighing 20 to 30 g, and 200 to 250 g, respectively, were employed in these assays.
Tail flick response latencies (defined as the time that elapsed between the onset of a high intensity beam of light and the reflex removal of the mouse or rat's tail) and hot plate response latencies (defined as the time that elapsed between the placement of a mouse or rat on a 55 degrees Celsius surface and a lick of the hind paw) were separately, but consecutively, measured before (baseline) and again at fixed intervals after subcutaneous or intracerebroventricular administration of one of the pentapeptide compounds of the invention, the Mosberg Pentapeptide, or after the administration of saline (controls). The cut-off latencies established to prevent tissue damage in the animals are 12 seconds or 14 seconds in the mouse and rat, respectively, in the Tail Flick Assay, and 40 seconds for both species in the Hot Plate Assay. The significance of any increase in tail flick response latency or hot plate response latency is determined using analyses of variance.
One way analyses of variance were used to determine the significance of the effect of the pentapeptides on response latencies. […]
(§3) "Activity" or "Inactivity" was determined at a particular concentration of the peptide by a significant increase in tail flick or hot plate latencies above normal latencies.
(§4) The data resulting from the Tail Flick Assay and the Hot Plate Assay are presented in Tables II and III below, respectively. The numbers in parentheses are calculated ED50 values.

[3] = test system: Charles River albino mice; experiment: Hot Plate Assay (mouse); format: in vivo
Source text: as §1, §2
The Tail Flick Assay and the Hot Plate Assay were performed generally in the manner described by G. Woolfe et al., "The Evaluation of the Analgesic Action of Pethidine Hydrochloride (Demerol)," J. Pharmacol. Exp. Ther., 80, 300, (1944), F. D'Amour et al., "A Method for Determining Loss of Pain Sensation," J. PharmacoI. […]
Tail flick response latencies (defined as the time that elapsed between the onset of a high intensity beam of light and the reflex removal of the mouse or rat's tail) and hot plate response latencies (defined as the time that elapsed between the placement of a mouse or rat on a 55 degrees Celsius surface and a lick of the hind paw) were separately, but consecutively, measured before (baseline) and again at fixed intervals after subcutaneous or intracerebroventricular administration of one of the pentapeptide compounds of the invention, the Mosberg Pentapeptide, or after the administration of saline (controls). […] The significance of any increase in tail flick response latency or hot plate response latency is determined using analyses of variance. […]
as §3, §4

[4] = i.c.v., dose giving half the maximum possible increase in latency

Sequence of δ opioid receptors (P33533 whole entry): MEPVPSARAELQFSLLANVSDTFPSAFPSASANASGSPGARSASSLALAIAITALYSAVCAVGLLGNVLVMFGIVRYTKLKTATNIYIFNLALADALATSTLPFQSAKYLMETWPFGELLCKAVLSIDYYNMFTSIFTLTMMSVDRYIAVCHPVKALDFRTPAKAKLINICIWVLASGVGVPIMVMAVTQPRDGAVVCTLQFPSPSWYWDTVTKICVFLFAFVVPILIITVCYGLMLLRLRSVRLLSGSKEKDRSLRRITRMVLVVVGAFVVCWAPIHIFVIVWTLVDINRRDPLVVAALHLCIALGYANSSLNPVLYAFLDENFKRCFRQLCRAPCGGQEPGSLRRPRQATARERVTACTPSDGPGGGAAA
Sequence of μ opioid receptors (P33535 whole entry): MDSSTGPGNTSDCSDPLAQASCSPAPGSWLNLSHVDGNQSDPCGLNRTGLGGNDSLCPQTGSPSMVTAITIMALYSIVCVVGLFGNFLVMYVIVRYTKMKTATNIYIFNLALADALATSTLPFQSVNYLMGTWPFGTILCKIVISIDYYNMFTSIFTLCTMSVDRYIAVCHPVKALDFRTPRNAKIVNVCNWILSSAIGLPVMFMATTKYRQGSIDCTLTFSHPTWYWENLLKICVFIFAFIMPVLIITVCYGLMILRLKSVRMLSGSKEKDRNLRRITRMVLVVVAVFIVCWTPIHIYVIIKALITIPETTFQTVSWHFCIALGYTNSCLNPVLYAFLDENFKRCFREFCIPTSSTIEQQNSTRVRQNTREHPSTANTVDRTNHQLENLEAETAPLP

## Cc1cc(O)c(C)c(C)c1CC(N)C(=O)N[C@H]1C(=O)NCC(=O)N[C@@H](Cc2ccccc2)C(=O)N[C@@H](C(=O)O)C(C)(C)SSC1(C)C (single isomer, unassigned) [Example 20 (Diastereomer A), 2,3,6-trimethyl-L-tyrosyl-3-mercapto-D-valylglycyl-L-phenylalanyl-3-mercapto-D-valine, cyclic (2→5) disulfide]
δ opioid receptors
  IC50: 0.024 µM
μ opioid receptors
  IC50: 24 µM

## Cc1ccc(CC(N)C(=O)N[C@H]2C(=O)NCC(=O)N[C@@H](Cc3ccccc3)C(=O)N[C@@H](C(=O)O)C(C)(C)SSC2(C)C)c(C)c1O (single isomer, unassigned) [Example 21 (Diastereomer B), 3-hydroxy-2,4-dimethyl-L-phenylalanyl-3-mercapto-D-valyglycyl-L-phenylalanyl-3-mercapto-D-valine, cyclic (2→5)-disulfide]
δ opioid receptors
  IC50: 0.151 µM

## Cc1cc(O)cc(C)c1C[C@H](N)C(=O)N[C@H]1C(=O)NCC(=O)N[C@@H](Cc2ccccc2)C(=O)N[C@@H](C(=O)O)C(C)(C)SSC1(C)C [Example 4, 2,6-dimethyl-L-tyrosyl-3-mercapto-D-valylglycyl-L-phenylalanyl-3-mercapto-D-valine, cyclic (2→5)-disulfide]
[1]
  Tail Flick Assay activity, Subcutaneous: Active
CD Charles River mice
  Writhing Assay, number of mice out of ten in which peptide was active, Intragastric: 3/10
  Writhing Assay ED50 value, Subcutaneous: 2.6 mpk
[2]; [4]
  Tail Flick Assay calculated ED50 value, Intracerebroventricular: 0.28 µg
[2]; at 33 mpk
  Tail Flick Assay activity, Subcutaneous: Active
[3]; [4]
  Hot Plate Assay calculated ED50 value, Intracerebroventricular: 0.20 µg

## COC(=O)[C@@H]1NC(=O)[C@H](Cc2ccccc2)NC(=O)CNC(=O)[C@H](NC(=O)[C@@H](N)Cc2c(C)cc(O)cc2C)C(C)(C)SSC1(C)C [Example 16, -dimethyl-L-tyrosyl-3-mercapto-D-valylglycyl-L-phenylalanyl-3-mercapto-D-valine, cyclic (2→5)-disulfide, methyl ester]
CD Charles River mice
  Writhing Assay, number of mice out of ten in which peptide was active, Intragastric: 3/10
  Writhing Assay ED50 value, Subcutaneous: 2.1 mpk
[2]; i.c.v., at 10 μg
  Tail Flick Assay activity, Intracerebroventricular: Active
[2]; at 30 mpk
  Tail Flick Assay activity, Subcutaneous: Active
[3]; i.c.v., at 10 μg
  Hot Plate Assay activity, Intracerebroventricular: Active
[3]; s.c., at 30 mpk
  Hot Plate Assay activity, Subcutaneous: Active

## Cc1cc(O)cc(C)c1C[C@H](N)C(=O)N[C@H]1C(=O)NCC(=O)N[C@@H](Cc2ccc(F)cc2)C(=O)N[C@@H](C(N)=O)C(C)(C)SSC1(C)C [Example 23, 2,6-dimethyl-L-tyrosyl-3-mercapto-D-valylglycyl-4-fluoro-L-phenylalanyl-3-mercapto-D-valinamide, cyclic (2→5)-disulfide]
CD Charles River mice; from Table I
  rank order of potency in the Writhing Assay: most potent compound of the invention tested
CD Charles River mice
  Writhing Assay, number of mice out of ten in which peptide was active, Intragastric: 4/10
  Writhing Assay ED50 value, Subcutaneous: 1.9 mpk

## Cc1cc(O)cc(C)c1C[C@H](N)C(=O)N[C@H]1C(=O)NCC(=O)N[C@@H](CC2CCCCC2)C(=O)N[C@@H](C(N)=O)C(C)(C)SSC1(C)C [Example 24, 2,6-dimethyl-L-tyrosyl-3-mercapto-D-valylglycyl-3-cyclohexyl-L-alanyl-3-mercapto-D-valinamide, cyclic (2→5)-disulfide]
CD Charles River mice
  Writhing Assay, number of mice out of ten in which peptide was active, Intragastric: 2/10
  Writhing Assay, number of mice out of ten in which peptide was active, Subcutaneous: 2/10
δ opioid receptors; ratio of mean IC50 values for μ and δ opioid receptors, above 1.0 = δ specific
  Mean IC50 μ/δ Ratio: 1.6

## Cc1cc(O)cc(C)c1C[C@H](N)C(=O)N[C@H]1C(=O)NCC(=O)N[C@@H](Cc2ccc(Cl)cc2)C(=O)N[C@@H](C(=O)OCc2ccccc2)C(C)(C)SSC1(C)C [Example 41, 2,6-dimethyl-L-tyrosyl-3-mercapto-D-valylglycyl-4-chloro-L-phenylalanyl-3-mercapto-D-valine, cyclic (2→5)-disulfide, phenylmethyl ester, monohydrochloride]
CD Charles River mice
  Writhing Assay, number of mice out of ten in which peptide was active, Intragastric: 4/10
  Writhing Assay, number of mice out of ten in which peptide was active, Subcutaneous: 3/10
